Data from PubChem BioAssay (NCI).
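Following 48 hours of exposure in 96-well plates, responses at five concentrations were used to interpolate endpoints linearly. The concentration for 50% growth inhibition is given as GI50. TGI: total growth inhibition.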

Columns and labels:
Experiment in all cases: NCI tumour cell line growth inhibition, 48 h
A549 NSCLC = tested on: A549 NSCLC
ACHN renal = tested on: ACHN renal
BT-549 breast = tested on: BT-549 breast
CAKI-1 renal = tested on: CAKI-1 renal
CCRF-CEM leukemia = tested on: CCRF-CEM leukemia
COLO 205 colon = tested on: COLO 205 colon
DU-145 prostate = tested on: DU-145 prostate
EKVX NSCLC = tested on: EKVX NSCLC
HCT-116 colon = tested on: HCT-116 colon
HCT-15 colon = tested on: HCT-15 colon
HL-60(TB) leukemia = tested on: HL-60(TB) leukemia
HOP-62 NSCLC = tested on: HOP-62 NSCLC
HS 578T breast = tested on: HS 578T breast
HT29 colon = tested on: HT29 colon
IGROV1 ovarian = tested on: IGROV1 ovarian
K-562 leukemia = tested on: K-562 leukemia
KM12 colon = tested on: KM12 colon
LOX IMVI melanoma = tested on: LOX IMVI melanoma
M14 melanoma = tested on: M14 melanoma
MALME-3M melanoma = tested on: MALME-3M melanoma
MCF7 breast = tested on: MCF7 breast
MDA-MB-231 breast = tested on: MDA-MB-231 breast
MDA-MB-435 = tested on: MDA-MB-435
MOLT-4 leukemia = tested on: MOLT-4 leukemia
NCI-H23 lung = tested on: NCI-H23 lung
NCI-H460 lung = tested on: NCI-H460 lung
NCI/ADR-RES ovarian = tested on: NCI/ADR-RES ovarian
OVCAR-3 ovarian = tested on: OVCAR-3 ovarian
OVCAR-4 ovarian = tested on: OVCAR-4 ovarian
OVCAR-5 ovarian = tested on: OVCAR-5 ovarian
OVCAR-8 ovarian = tested on: OVCAR-8 ovarian
PC-3 prostate = tested on: PC-3 prostate
RPMI-8226 leukemia = tested on: RPMI-8226 leukemia
RXF 393 renal = tested on: RXF 393 renal
SF-268 CNS = tested on: SF-268 CNS
SF-295 CNS = tested on: SF-295 CNS
SF-539 CNS = tested on: SF-539 CNS
SK-MEL-28 melanoma = tested on: SK-MEL-28 melanoma
SK-MEL-5 melanoma = tested on: SK-MEL-5 melanoma
SK-OV-3 ovarian = tested on: SK-OV-3 ovarian
SN12C renal = tested on: SN12C renal
SNB-19 CNS = tested on: SNB-19 CNS
SNB-75 CNS = tested on: SNB-75 CNS
SR leukemia = tested on: SR leukemia
SW-620 colon = tested on: SW-620 colon
T-47D breast = tested on: T-47D breast
TK-10 renal = tested on: TK-10 renal
U251 CNS = tested on: U251 CNS
UACC-257 melanoma = tested on: UACC-257 melanoma
UACC-62 melanoma = tested on: UACC-62 melanoma
UO-31 renal = tested on: UO-31 renal
786-0 renal = tested on: 786-0 renal
HCC-2998 colon = tested on: HCC-2998 colon
HOP-92 NSCLC = tested on: HOP-92 NSCLC
NCI-H226 lung = tested on: NCI-H226 lung
NCI-H522 lung = tested on: NCI-H522 lung
SK-MEL-2 melanoma = tested on: SK-MEL-2 melanoma

CC(=O)c1c(-c2ccco2)c(C#N)c(=S)n(C2OC(CO)C(O)C(O)C2O)c1-c1ccccc1 (stereo not drawn)
TGI (A549 NSCLC): > 100 µM | TGI (ACHN renal): > 100 µM | TGI (BT-549 breast): > 100 µM | TGI (CAKI-1 renal): > 100 µM | TGI (CCRF-CEM leukemia): > 100 µM | TGI (COLO 205 colon): > 100 µM | TGI (DU-145 prostate): > 100 µM | TGI (EKVX NSCLC): > 100 µM | TGI (HCT-116 colon): > 100 µM | TGI (HCT-15 colon): > 100 µM | TGI (HL-60(TB) leukemia): 85.9 µM | TGI (HOP-62 NSCLC): > 100 µM | TGI (HS 578T breast): > 100 µM | TGI (HT29 colon): > 100 µM | TGI (IGROV1 ovarian): > 100 µM | TGI (K-562 leukemia): > 100 µM | TGI (KM12 colon): > 100 µM | TGI (LOX IMVI melanoma): > 100 µM | TGI (M14 melanoma): > 100 µM | TGI (MALME-3M melanoma): > 100 µM | TGI (MCF7 breast): > 100 µM | TGI (MDA-MB-231 breast): > 100 µM | TGI (MDA-MB-435): > 100 µM | TGI (MOLT-4 leukemia): > 100 µM | TGI (NCI-H23 lung): > 100 µM | TGI (NCI-H460 lung): > 100 µM | TGI (NCI/ADR-RES ovarian): > 100 µM | TGI (OVCAR-3 ovarian): > 100 µM | TGI (OVCAR-4 ovarian): > 100 µM | TGI (OVCAR-5 ovarian): > 100 µM | TGI (OVCAR-8 ovarian): > 100 µM | TGI (PC-3 prostate): > 100 µM | TGI (RPMI-8226 leukemia): > 100 µM | TGI (RXF 393 renal): > 100 µM | TGI (SF-268 CNS): > 100 µM | TGI (SF-295 CNS): > 100 µM | TGI (SF-539 CNS): > 100 µM | TGI (SK-MEL-28 melanoma): > 100 µM | TGI (SK-MEL-5 melanoma): > 100 µM | TGI (SK-OV-3 ovarian): > 100 µM | TGI (SN12C renal): > 100 µM | TGI (SNB-19 CNS): 59.7 µM | TGI (SNB-75 CNS): > 100 µM | TGI (SR leukemia): > 100 µM | TGI (SW-620 colon): > 100 µM | TGI (T-47D breast): > 100 µM | TGI (TK-10 renal): > 100 µM | TGI (U251 CNS): > 100 µM | TGI (UACC-257 melanoma): > 100 µM | TGI (UACC-62 melanoma): > 100 µM | TGI (UO-31 renal): > 100 µM

CCN(CC)CCn1c(N)c(-c2nc3ccccc3n2C)c2nc(C#N)c(C#N)nc21
GI50 (786-0 renal): 1.01 µM | TGI (786-0 renal): 2.91 µM | GI50 (A549 NSCLC): 3.2 µM | TGI (A549 NSCLC): 13.7 µM | GI50 (ACHN renal): 0.696 µM | TGI (ACHN renal): 1.53 µM | GI50 (BT-549 breast): 7.64 µM | TGI (BT-549 breast): 18.3 µM | GI50 (CAKI-1 renal): 3.7 µM | TGI (CAKI-1 renal): 11.2 µM | GI50 (CCRF-CEM leukemia): 4.25 µM | TGI (CCRF-CEM leukemia): 37.9 µM | GI50 (COLO 205 colon): 3.84 µM | TGI (COLO 205 colon): > 28.1 µM | GI50 (DU-145 prostate): 3.93 µM | TGI (DU-145 prostate): 13 µM | GI50 (EKVX NSCLC): 7.1 µM | TGI (EKVX NSCLC): 20.5 µM | GI50 (HCC-2998 colon): 0.696 µM | TGI (HCC-2998 colon): 1.41 µM | GI50 (HCT-116 colon): 1.94 µM | TGI (HCT-116 colon): > 18.5 µM | GI50 (HCT-15 colon): 5.9 µM | TGI (HCT-15 colon): > 27.1 µM | GI50 (HL-60(TB) leukemia): 2.84 µM | TGI (HL-60(TB) leukemia): > 50 µM | GI50 (HOP-62 NSCLC): 2.65 µM | TGI (HOP-62 NSCLC): 11 µM | GI50 (HOP-92 NSCLC): 2.5 µM | TGI (HOP-92 NSCLC): 12.1 µM | GI50 (HS 578T breast): 2.52 µM | TGI (HS 578T breast): 11.7 µM | GI50 (IGROV1 ovarian): 1.3 µM | TGI (IGROV1 ovarian): 14.3 µM | GI50 (K-562 leukemia): 3.31 µM | TGI (K-562 leukemia): > 42.2 µM | GI50 (KM12 colon): 5.65 µM | TGI (KM12 colon): 20.3 µM | GI50 (LOX IMVI melanoma): 0.97 µM | TGI (LOX IMVI melanoma): 2.62 µM | GI50 (M14 melanoma): 7.21 µM | TGI (M14 melanoma): 30.8 µM | GI50 (MCF7 breast): 3.08 µM | TGI (MCF7 breast): > 50 µM | GI50 (MDA-MB-231 breast): 0.295 µM | TGI (MDA-MB-231 breast): 1.71 µM | GI50 (MDA-MB-435): 6.23 µM | TGI (MDA-MB-435): > 32.4 µM | GI50 (MOLT-4 leukemia): 1.81 µM | TGI (MOLT-4 leukemia): 11.1 µM | GI50 (NCI-H226 lung): 9.57 µM | TGI (NCI-H226 lung): 39.8 µM | GI50 (NCI-H23 lung): 1.7 µM | TGI (NCI-H23 lung): 16.2 µM | GI50 (NCI-H460 lung): 4.58 µM | TGI (NCI-H460 lung): 38.5 µM | GI50 (NCI-H522 lung): 3.72 µM | TGI (NCI-H522 lung): 24.9 µM | GI50 (NCI/ADR-RES ovarian): 3.1 µM | TGI (NCI/ADR-RES ovarian): 8.86 µM | GI50 (OVCAR-3 ovarian): 1.52 µM | TGI (OVCAR-3 ovarian): 7.31 µM | GI50 (OVCAR-4 ovarian): 1.86 µM | TGI (OVCAR-4 ovarian): 9.91 µM | GI50 (OVCAR-5 ovarian): 3.96 µM | TGI (OVCAR-5 ovarian): 12.7 µM | GI50 (OVCAR-8 ovarian): 3.43 µM | TGI (OVCAR-8 ovarian): 13.8 µM | GI50 (PC-3 prostate): 1.8 µM | TGI (PC-3 prostate): > 19.5 µM | GI50 (RPMI-8226 leukemia): 1.97 µM | TGI (RPMI-8226 leukemia): > 12.1 µM | GI50 (RXF 393 renal): 1.98 µM | TGI (RXF 393 renal): 4.46 µM | GI50 (SF-268 CNS): 3.64 µM | TGI (SF-268 CNS): 22.4 µM | GI50 (SF-295 CNS): 5.62 µM | TGI (SF-295 CNS): 15.6 µM | GI50 (SF-539 CNS): 2.8 µM | TGI (SF-539 CNS): 9.43 µM | GI50 (SK-MEL-2 melanoma): 6.28 µM | TGI (SK-MEL-2 melanoma): 25.6 µM | GI50 (SK-MEL-28 melanoma): 0.6 µM | TGI (SK-MEL-28 melanoma): 3.02 µM | GI50 (SK-MEL-5 melanoma): 3.04 µM | TGI (SK-MEL-5 melanoma): 12.8 µM | GI50 (SK-OV-3 ovarian): 5.21 µM | TGI (SK-OV-3 ovarian): 14.3 µM | GI50 (SN12C renal): 3.09 µM | TGI (SN12C renal): 14.2 µM | GI50 (SNB-19 CNS): 7.3 µM | TGI (SNB-19 CNS): 21.5 µM | GI50 (SR leukemia): 12.2 µM | TGI (SR leukemia): > 50 µM | GI50 (SW-620 colon): 2.59 µM | TGI (SW-620 colon): > 21.8 µM | GI50 (T-47D breast): 1.68 µM | GI50 (TK-10 renal): 7.16 µM | TGI (TK-10 renal): 14.2 µM | GI50 (U251 CNS): 1.27 µM | TGI (U251 CNS): 4.06 µM | GI50 (UACC-257 melanoma): 2.23 µM | TGI (UACC-257 melanoma): 10.3 µM | GI50 (UACC-62 melanoma): 3.44 µM | TGI (UACC-62 melanoma): 15 µM | GI50 (UO-31 renal): 2.06 µM | TGI (UO-31 renal): 6.61 µM
